Structures are written as SMILES.

This note sets out measurements from article PMC11232109, “Synthesis, anticancer evaluation of novel hybrid pyrazole-based chalcones, molecular docking, DNA fragmentation, and gene expression: in vitro studies” (RSC Advances, 2024).

Format in all cases: cell-based
For data set [1], the system named is MCF7 (human breast adenocarcinoma). Nature of the data set: MTT assay, MCF7. The note with it: Homo sapiens, MTT; for cytotoxicity at 100 µg/mL: at 100 μg ml^−1, 48 hours. How it is done: (§1) The percentage of the cell viability treated with the newly synthesized compounds was evaluated using MTT assay (3-(4,5-dimethylthiazol-2-yl)-2,5-diphenyl tetrazolium bromide). All the subsequent steps were done in a sterile Laminar flow class II biosafety cabinet (Baker, SG406INT, Sanford, ME, USA). DMEM was used as a suspension medium for breast cancer (MCF7), prostate cancer (PC3), and pancreatic cancer (PACA2), while normal cell line (BJ1) was suspended in DMEM-F12 medium, a 1% antibiotic-antimycotic mixture (10 000 U ml^−1 potassium penicillin, 10 000 μg ml^−1 streptomycin sulfate, and 25 μg ml^−1 amphotericin B), and 1% L-glutamine at 37 °C under 5% CO2.
(§2) Cells were cultured for 10 days and then seeded at a concentration of 10 × 10^4 cells per well in fresh complete growth medium in 96-well microtiter plastic plates at 37 °C for 24 hours under 5% CO2 using a water-jacketed carbon dioxide incubator (Sheldon, TC2323). Media were aspirated, serum-free fresh medium was added, and cells were incubated either alone (negative control) or with different concentrations of the synthesized chalcone derivatives to a final concentration of (100–50–25–12.5–6.25–3.125–0.78 and 1.56 μg ml^−1). After incubation for 48 hours, the medium was aspirated and 40 μl of MTT salt ([…]) was added to each well and incubated for another four hours at 37 °C under 5% CO2. To stop the reaction and dissolve the formed crystals, 200 μl of 10% sodium dodecyl sulfate (SDS) in deionized water was added to each well and incubated overnight at 37 °C.
(§3) The absorbance was then measured at 595 nm and a reference wavelength of 620 nm using a microplate multi-well reader (Bio-Rad Laboratories Inc., model 3350). Statistical significance was tested between the samples and the negative control (cells with vehicle) using an independent t-test using the SPSS 11 program. DMSO was the vehicle used for the dissolution of the synthesized chalcones, and its final concentration on the cells was less than 0.2%. The percentage of change in viability was calculated according to the formula: ((reading of extract/reading of negative control) − 1) × 100. A Probit analysis was carried out for the determination of IC50 using the SPSS 11 program.
Background: Tetrazolium assays rely on reduction of a dye to a coloured formazan, in cell work by metabolically active cells.

In a further data set the test system is PC3 (prostatic cancer). The data set is described as follows: MTT assay, PC3. The note with it: Homo sapiens, 48 h, MTT, read-out: (%) Mortality of PC3; for cytotoxicity at 100 µg/mL: at 100 μg ml^−1, 48 hours. As for the experimental part: as §1, §2, §3
A short description of data set [2]: MTT assay, normal cell line BJ1. As to conditions: human, BJ1 normal skin fibroblasts, at 100 μg ml^−1, 48 hours, read-out: (%) Mortality of BJ1. How it is done:
as §1, §2, §3

Data set [3] concerns PACA2 (pancreatic carcinoma). The data set is described as follows: MTT assay, PACA2. The note with it: Homo sapiens, PaCa-2, 48 h, MTT, read-out: (%) Mortality of PACA2; for cytotoxicity at 100 µg/mL: at 100 μg ml^−1, 48 hours. As for the experimental part:
as §1, §2, §3

Data set [4] relates to BJ1 (normal skin fibroblasts). The data set is described as follows: MTT assay, normal cell line BJ1. The note with it: Skin fibroblast, 48 hours. How it is done:
as §1, §2, §3

Where [5] appears, read: MCF7, 48 h, read-out: (%) Mortality of MCF7.

The term IC50 denotes the concentration at which inhibition is half-maximal. Lower therefore signals inhibition by little substance. Take `Cc1c(C(=O)C=Cc2ccco2)c(-c2cccs2)nn1-c1ccc([N+](=O)[O-])cc1` [Compound 7a, 3-(Furan-2-yl)-1-(5-methyl-1-(4-nitrophenyl)-3-(thiophen-2-yl)-1H-pyrazol-4-yl)prop-2-en-1-one]: the cytotoxicity at 100 µg/mL was found to be 63.5 ± 0.11% in data set [1] (setting [5]), 3.8 ± 0.65% with PC3 (prostatic cancer) and 17.3 ± 0.13% in data set [3]. The same compound had an IC50 in data set [1] (MCF7, 48 hours) of 72.3 ± 0.34 µM. In addition, the cytotoxicity at 48 h, 100 μg ml^−1 in data set [2] was 11.2 ± 0.48%.
With `Cc1c(C(=O)C=Cc2cccs2)c(-c2cccs2)nn1-c1ccc([N+](=O)[O-])cc1` [Compound 7b, 1-(5-Methyl-1-(4-nitrophenyl)-3-(thiophen-2-yl)-1H-pyrazol-4-yl)-3-(thiophen-2-yl)prop-2-en-1-one], the cytotoxicity at 100 µg/mL in data set [1] (setting [5]) came out at 45.3 ± 0.98%; in the data set on PC3 (prostatic cancer), 4.2 ± 0.73%; in data set [3] it was 32.5 ± 0.74%.
Consider `Cc1c(C(=O)C=Cc2ccncc2)c(-c2cccs2)nn1-c1ccc([N+](=O)[O-])cc1` [Compound 7c, 1-(5-Methyl-1-(4-nitrophenyl)-3-(thiophen-2-yl)-1H-pyrazol-4-yl)-3-(pyridin-4-yl)prop-2-en-1-one], for which the cytotoxicity at 6.25 µg/mL in data set [1] (MCF7, 48 h, up to 6.25 μg ml^−1, 48 hours, read-out: (%) Mortality of MCF7) worked out at 100%; with PC3 (prostatic cancer) (up to 6.25 μg ml^−1, 48 hours) it was 100%; in data set [3] (up to 6.25 μg ml^−1, 48 hours) it was 100%. Moreover, the cytotoxicity at 48 h, 100 μg ml^−1 in data set [2] came out at 52.3 ± 0.76%. Moreover, half-maximal inhibition in data set [4] (IC50) required 86.2 ± 0.22 µM.
As for `Cc1c(C(=O)C=Cc2nn(-c3ccccc3)cc2-c2ccccc2)c(-c2cccs2)nn1-c1ccc([N+](=O)[O-])cc1` [Compound 9a, 3-(1,4-Diphenyl-1H-pyrazol-3-yl)-1-(5-methyl-1-(4-nitrophenyl)-3-(thiophen-2-yl)-1H-pyrazol-4-yl)prop-2-en-1-one], the cytotoxicity at 100 µg/mL was 42.3 ± 0.21% in data set [1] (setting [5]), 4.5 ± 0.26% with PC3 (prostatic cancer) and 50.3 ± 0.42% in data set [3].
The like results for `Cc1ccc(-c2cn(-c3ccccc3)nc2C=CC(=O)c2c(-c3cccs3)nn(-c3ccc([N+](=O)[O-])cc3)c2C)cc1` [Compound 9b, 1-(5-Methyl-1-(4-nitrophenyl)-3-(thiophen-2-yl)-1H-pyrazol-4-yl)-3-(1-phenyl-4-(p-tolyl)-1H-pyrazol-3-yl)prop-2-en-1-one] were, in that order, 44.5 ± 0.74%, 27.2 ± 0.31% and 39.5 ± 0.91%.
The like results for `COc1ccc(-c2cn(-c3ccccc3)nc2C=CC(=O)c2c(-c3cccs3)nn(-c3ccc([N+](=O)[O-])cc3)c2C)cc1` [Compound 9c, 3-(4-(4-Methoxyphenyl)-1-phenyl-1H-pyrazol-3-yl)-1-(5-methyl-1-(4-nitrophenyl)-3-(thiophen-2-yl)-1H-pyrazol-4-yl)prop-2-en-1-one] were, in that order, 25.2 ± 0.41%, 2.9 ± 0.57% and 19.8 ± 0.68%.
The corresponding values for `Cc1c(C(=O)C=Cc2nn(-c3ccccc3)cc2-c2ccc(Cl)cc2)c(-c2cccs2)nn1-c1ccc([N+](=O)[O-])cc1` [Compound 9d, 3-(4-(4-Chlorophenyl)-1-phenyl-1H-pyrazol-3-yl)-1-(5-methyl-1-(4-nitrophenyl)-3-(thiophen-2-yl)-1H-pyrazol-4-yl)prop-2-en-1-one] are 44.2 ± 0.33%, 3.5 ± 0.92% and 54.5 ± 0.84%.
As to `Cc1c(C(=O)C=Cc2nn(-c3ccccc3)cc2-c2cccs2)c(-c2cccs2)nn1-c1ccc([N+](=O)[O-])cc1` [Compound 9f, 1-(5-Methyl-1-(4-nitrophenyl)-3-(thiophen-2-yl)-1H-pyrazol-4-yl)-3-(1-phenyl-4-(thiophen-2-yl)-1H-pyrazol-3-yl)prop-2-en-1-one], the values for the cytotoxicity at 100 µg/mL (in data set [1] (setting [5]); in the data set on PC3 (prostatic cancer); in data set [3]) were 80.4 ± 0.25%, 4.5 ± 0.23% and 16.5 ± 0.35%, respectively.
